In patent US8067424B2, “Selective inhibitors for cyclin-dependent kinases” (Emory University, priority 2007, dated 2011):
Like-named read-outs stand apart in the source and are kept apart here.

How the values were obtained:
Assay type in all cases: biochemical
EPH-B3 = molecular target: T1, EPH-B3 (Homo sapiens, UniProt P54753); test: Kinase screen: EPH-B3 assay; conditions: 10 micromolar compound; for remaining activity at 10 µM: read-out: mean activity remaining (as a percentage of the original activity), EPH-B3
T1 sequence (P54753 34-998): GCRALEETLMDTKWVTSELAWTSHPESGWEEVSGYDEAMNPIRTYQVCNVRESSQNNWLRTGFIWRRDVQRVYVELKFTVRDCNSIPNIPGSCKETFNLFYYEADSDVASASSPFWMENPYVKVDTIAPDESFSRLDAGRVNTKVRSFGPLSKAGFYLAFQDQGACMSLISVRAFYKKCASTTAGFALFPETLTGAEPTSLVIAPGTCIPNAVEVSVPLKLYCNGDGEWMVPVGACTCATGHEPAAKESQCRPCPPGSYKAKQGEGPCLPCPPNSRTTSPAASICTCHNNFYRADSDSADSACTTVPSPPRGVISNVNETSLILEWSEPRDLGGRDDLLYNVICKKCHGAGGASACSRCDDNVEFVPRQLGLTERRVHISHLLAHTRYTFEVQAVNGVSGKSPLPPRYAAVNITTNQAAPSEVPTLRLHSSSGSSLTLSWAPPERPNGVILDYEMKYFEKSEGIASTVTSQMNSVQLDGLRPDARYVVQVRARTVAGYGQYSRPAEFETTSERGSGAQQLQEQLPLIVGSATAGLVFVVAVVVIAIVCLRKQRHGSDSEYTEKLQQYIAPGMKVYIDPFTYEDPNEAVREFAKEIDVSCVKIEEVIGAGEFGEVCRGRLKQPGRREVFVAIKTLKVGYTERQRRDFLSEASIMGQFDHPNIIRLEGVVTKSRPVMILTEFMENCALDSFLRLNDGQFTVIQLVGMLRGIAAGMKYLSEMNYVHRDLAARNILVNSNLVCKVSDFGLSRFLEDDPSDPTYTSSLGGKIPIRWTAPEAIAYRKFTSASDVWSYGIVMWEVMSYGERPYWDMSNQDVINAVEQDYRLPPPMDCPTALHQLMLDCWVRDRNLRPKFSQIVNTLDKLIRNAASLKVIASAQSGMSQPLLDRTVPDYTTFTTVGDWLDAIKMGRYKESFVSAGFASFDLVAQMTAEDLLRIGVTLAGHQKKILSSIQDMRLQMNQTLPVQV
Protocol: (§1) Generally, the same procedure was used for all assays. Since the total assay volume was 25.5 microliters, 0.5 microliters of inhibitors at 51× assay concentration were added to the plates before any other addition.
(§2) The basic procedure was to add 0.5 microliters inhibitor/control in DMSO to plate. Fifteen microliters of enzyme/substrate/buffer mix were added and incubated for 5 min. Ten microliters MgATP at the relevant concentration were added and incubated for 30 min. The assay was stopped by adding 5 microliters of 3% orthophosphoric acid. The assay was transferred to a p81 filter plate and read in a scintillation counter of 30 sec/well. Note that this assay procedure was not followed for MKK1, which instead involved a two-step assay, and PKC alpha, which required the addition of lipid vesicles.
EPH-B3 assay: EPH-B3 (5-20 mU diluted in 50 mM Tris pH 7.5, 0.1 mM EGTA, 1 mg/ml BSA) was assayed against a substrate peptide (Poly Glut Tyr) in a final volume of 25.5 μl containing 50 mM Tris pH 7.5, 1 mg/ml substrate peptide, 10 mM magnesium acetate and 0.005 mM [33P-g-ATP] (50-1000 cpm/pmole) and incubated for 30 min at room temperature. Assays were stopped by addition of 5 μl of 0.5 M (3%) orthophosphoric acid and then harvested onto P81 Unifilter plates with a wash buffer of 50 mM orthophosphoric acid.

ROCK 2 = ROCK 2 (Homo sapiens, UniProt O75116); test: Kinase screen: ROCK-II (ROKa) assay
Chain of ROCK 2 (O75116 whole entry, species assumed): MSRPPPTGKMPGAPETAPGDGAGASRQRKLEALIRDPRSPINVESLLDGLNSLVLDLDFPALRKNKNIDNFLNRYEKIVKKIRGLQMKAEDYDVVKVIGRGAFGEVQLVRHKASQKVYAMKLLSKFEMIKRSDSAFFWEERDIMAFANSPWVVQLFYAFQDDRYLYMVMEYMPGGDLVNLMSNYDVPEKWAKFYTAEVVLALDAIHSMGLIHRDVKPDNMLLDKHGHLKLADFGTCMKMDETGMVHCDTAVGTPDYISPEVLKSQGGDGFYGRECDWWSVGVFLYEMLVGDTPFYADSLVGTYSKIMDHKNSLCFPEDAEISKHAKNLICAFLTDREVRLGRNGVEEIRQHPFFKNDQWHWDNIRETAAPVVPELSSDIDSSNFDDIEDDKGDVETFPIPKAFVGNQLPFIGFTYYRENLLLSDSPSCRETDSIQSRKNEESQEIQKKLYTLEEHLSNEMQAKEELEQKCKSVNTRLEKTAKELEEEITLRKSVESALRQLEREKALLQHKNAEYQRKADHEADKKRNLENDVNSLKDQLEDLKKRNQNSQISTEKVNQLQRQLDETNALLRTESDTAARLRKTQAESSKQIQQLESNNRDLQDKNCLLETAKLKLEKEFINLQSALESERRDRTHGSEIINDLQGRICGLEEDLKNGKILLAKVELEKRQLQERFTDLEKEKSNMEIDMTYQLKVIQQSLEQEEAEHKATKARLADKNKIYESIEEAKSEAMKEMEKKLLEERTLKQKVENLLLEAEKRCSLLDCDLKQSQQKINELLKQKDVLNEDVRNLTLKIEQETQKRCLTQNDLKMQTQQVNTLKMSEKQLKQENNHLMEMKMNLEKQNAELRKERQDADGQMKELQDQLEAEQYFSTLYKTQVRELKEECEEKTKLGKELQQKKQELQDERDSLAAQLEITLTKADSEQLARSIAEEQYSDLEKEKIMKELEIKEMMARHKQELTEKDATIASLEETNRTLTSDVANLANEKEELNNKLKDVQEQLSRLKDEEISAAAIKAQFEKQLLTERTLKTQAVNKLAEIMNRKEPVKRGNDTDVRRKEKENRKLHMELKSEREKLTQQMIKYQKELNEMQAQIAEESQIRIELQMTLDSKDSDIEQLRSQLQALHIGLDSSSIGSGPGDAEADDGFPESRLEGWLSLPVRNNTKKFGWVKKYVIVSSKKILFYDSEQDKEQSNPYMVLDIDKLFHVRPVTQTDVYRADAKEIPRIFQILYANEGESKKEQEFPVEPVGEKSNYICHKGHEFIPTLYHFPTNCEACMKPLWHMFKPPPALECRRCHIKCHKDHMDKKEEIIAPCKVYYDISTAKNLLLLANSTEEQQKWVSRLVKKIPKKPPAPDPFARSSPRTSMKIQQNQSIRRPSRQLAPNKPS
Protocol: as §1, §2
(§3) ROCK-II (ROKa) assay: ROCK-II (ROKa) (5-20 mU diluted in 50 mM Tris pH 7.5, 0.1 mM EGTA, 0.1% b-mercaptoethanol, 1 mg/ml BSA) was assayed against Long S6 substrate peptide ([…]) (SEQ ID NO: 10) in a final volume of 25.5 μl containing 50 mM Tris pH 7.5, 0.1 mM EGTA, 30 μM Long S6 substrate peptide, 10 mM magnesium acetate and 0.02 mM [33P-g-ATP] (50-1000 cpm/pmole) and incubated for 30 min at room temperature. Assays were stopped by addition of 5 μl of 0.5 M (3%) orthophosphoric acid and then harvested onto P81 Unifilter plates with a wash buffer of 50 mM orthophosphoric acid.

JNK2 = JNK2 (Homo sapiens, UniProt P45984); test: Kinase screen: JNK2 assay
Chain of JNK2 (P45984 whole entry, species assumed): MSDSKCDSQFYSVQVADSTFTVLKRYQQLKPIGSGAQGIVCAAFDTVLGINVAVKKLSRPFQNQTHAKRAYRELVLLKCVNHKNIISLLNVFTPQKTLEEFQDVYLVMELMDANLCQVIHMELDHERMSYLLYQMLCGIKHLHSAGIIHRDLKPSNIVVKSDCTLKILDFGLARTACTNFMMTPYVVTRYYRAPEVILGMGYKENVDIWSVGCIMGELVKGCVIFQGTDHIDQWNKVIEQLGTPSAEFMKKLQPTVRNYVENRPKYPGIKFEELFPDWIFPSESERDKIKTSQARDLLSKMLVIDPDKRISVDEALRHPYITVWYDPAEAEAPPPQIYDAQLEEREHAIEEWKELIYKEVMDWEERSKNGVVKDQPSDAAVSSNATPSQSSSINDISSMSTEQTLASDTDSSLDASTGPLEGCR
Protocol: as §1, §2
JNK2 assay: JNK2 1(5-20 mU diluted in 50 mM Tris (pH 7.5), 0.1 mM EGTA, 1 mg/ml BSA, 0.1% b-mercaptoethanol) was assayed against ATF2 (activating transcription factor in a final volume of 25.5 μl in 50 mM Tris pH 7.5, 0.1 mM EGTA, 0.1% b-Mercaptoethanol, ATF2 (3 μM), 10 mM magnesium acetate and 0.02 mM [33P-g-ATP] (500-1000 cpm/pmole) and incubated for 30 min at room temperature. Assays were stopped by addition of 5 μl of 0.5 M (3%) orthophosphoric acid and then harvested onto P81 Unifilter plates with a wash buffer of 50 mM orthophosphoric acid.

IR-HIS = molecular target: T2, IR-HIS (Homo sapiens, UniProt P06213); test: Kinase screen: IR-HIS assay; conditions: 10 micromolar compound; for remaining activity at 10 µM: read-out: mean activity remaining (as a percentage of the original activity), IR-HIS
T2 construct: His
T2 sequence (P06213 28-1382): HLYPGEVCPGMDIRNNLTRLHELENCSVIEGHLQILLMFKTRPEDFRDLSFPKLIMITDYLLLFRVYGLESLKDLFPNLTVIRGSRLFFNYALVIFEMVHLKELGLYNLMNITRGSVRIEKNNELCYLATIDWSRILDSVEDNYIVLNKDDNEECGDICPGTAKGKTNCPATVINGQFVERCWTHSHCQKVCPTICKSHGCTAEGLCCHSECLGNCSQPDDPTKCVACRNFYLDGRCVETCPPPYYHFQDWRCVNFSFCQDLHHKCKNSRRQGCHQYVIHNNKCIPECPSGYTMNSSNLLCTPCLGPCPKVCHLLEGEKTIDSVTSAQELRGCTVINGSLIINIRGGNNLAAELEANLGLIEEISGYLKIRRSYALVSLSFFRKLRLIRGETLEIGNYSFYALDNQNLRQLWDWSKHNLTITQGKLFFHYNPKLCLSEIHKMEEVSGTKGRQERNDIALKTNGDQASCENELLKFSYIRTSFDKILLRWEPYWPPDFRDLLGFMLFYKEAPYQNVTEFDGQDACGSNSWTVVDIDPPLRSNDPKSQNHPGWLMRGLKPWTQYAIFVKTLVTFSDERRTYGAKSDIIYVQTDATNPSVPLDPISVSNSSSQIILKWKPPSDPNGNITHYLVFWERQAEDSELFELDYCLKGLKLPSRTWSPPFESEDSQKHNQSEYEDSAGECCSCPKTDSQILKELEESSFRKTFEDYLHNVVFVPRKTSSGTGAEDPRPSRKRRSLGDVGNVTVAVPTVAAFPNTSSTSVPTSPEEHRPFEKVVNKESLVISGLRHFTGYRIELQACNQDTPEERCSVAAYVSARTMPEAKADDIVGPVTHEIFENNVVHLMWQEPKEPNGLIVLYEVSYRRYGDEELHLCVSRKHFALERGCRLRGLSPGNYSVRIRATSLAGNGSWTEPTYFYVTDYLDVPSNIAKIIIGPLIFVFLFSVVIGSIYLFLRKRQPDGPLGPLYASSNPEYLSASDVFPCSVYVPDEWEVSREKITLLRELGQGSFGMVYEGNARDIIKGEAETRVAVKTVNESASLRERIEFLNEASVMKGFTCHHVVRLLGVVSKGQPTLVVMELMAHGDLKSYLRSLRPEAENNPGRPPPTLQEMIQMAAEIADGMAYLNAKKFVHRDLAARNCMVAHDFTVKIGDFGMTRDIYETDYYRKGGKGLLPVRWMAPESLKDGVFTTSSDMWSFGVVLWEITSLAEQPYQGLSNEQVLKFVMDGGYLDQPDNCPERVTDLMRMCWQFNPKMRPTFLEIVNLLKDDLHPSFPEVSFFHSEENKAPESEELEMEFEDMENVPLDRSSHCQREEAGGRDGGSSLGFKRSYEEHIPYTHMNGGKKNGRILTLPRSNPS
Protocol: as §1, §2
as §3, with “IR-HIS” for “ROCK-II (ROKa)”, “EGTA,” for “EGTA, 0.1% b-mercaptoethanol,”, “a” for “Long S6”, “36)” for “10)”, “300” for “0.1 mM EGTA, 30”, “μM” for “μM Long S6”

GSK3β = GSK3β (Homo sapiens, UniProt P49841); test: Kinase screen: GSK3b assay
Chain of GSK3β (P49841 whole entry, species assumed): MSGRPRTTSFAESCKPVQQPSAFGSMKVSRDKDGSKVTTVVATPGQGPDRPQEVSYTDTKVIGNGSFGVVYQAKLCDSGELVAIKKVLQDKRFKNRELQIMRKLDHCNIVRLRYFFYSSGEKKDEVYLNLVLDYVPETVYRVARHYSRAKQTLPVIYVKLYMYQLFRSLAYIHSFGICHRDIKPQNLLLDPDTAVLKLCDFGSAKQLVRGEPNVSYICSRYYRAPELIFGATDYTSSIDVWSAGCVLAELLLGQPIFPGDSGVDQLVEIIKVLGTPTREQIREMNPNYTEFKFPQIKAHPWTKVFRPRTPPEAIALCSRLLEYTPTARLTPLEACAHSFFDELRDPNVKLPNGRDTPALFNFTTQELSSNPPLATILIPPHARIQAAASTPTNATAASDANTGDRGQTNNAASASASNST
Protocol: as §1, §2
(50-1000 cpm/pmole) and incubated for 30 min at room temperature. Assays were stopped by addition of 5 μl of 0.5 M (3%) orthophosphoric acid and then harvested onto P81 Unifilter plates with a wash buffer of 50 mM orthophosphoric acid.

[1] = 10 micromolar compound, read-out: mean activity remaining (as a percentage of the original activity), ROCK 2
[2] = 10 micromolar compound, read-out: mean activity remaining (as a percentage of the original activity), JNK2
[3] = 10 micromolar compound, read-out: mean activity remaining (as a percentage of the original activity), GSK 3b

SMILES | remaining activity at 10 µM (EPH-B3) [%] | remaining activity at 10 µM (ROCK 2; [1]) [%] | remaining activity at 10 µM (JNK2; [2]) [%] | remaining activity at 10 µM (IR-HIS) [%] | remaining activity at 10 µM (GSK3β; [3]) [%] | mean activity remaining (as a percentage of the original activity), EPH-B3 (EPH-B3) [%] | mean activity remaining (as a percentage of the original activity), ROCK 2 (ROCK 2; 10 micromolar compound) [%] | mean activity remaining (as a percentage of the original activity), JNK2 (JNK2; 10 micromolar compound) [%] | mean activity remaining (as a percentage of the original activity), IR-HIS (IR-HIS) [%] | mean activity remaining (as a percentage of the original activity), GSK 3b (GSK3β; 10 micromolar compound) [%] | remaining activity at 10 µM (ROCK 2; ROCK 2, 10 μM, read-out: Mean Remaining Enzyme Activity (%)) [%] | remaining activity at 10 µM (JNK2; JNK2, 10 μM, read-out: Mean Remaining Enzyme Activity (%)) [%] | remaining activity at 10 µM (GSK3β; GSK3β, 10 μM, read-out: Mean Remaining Enzyme Activity (%)) [%]
CC[C@H](CO)Nc1cc(NCc2ccccc2)n2ncc(C(C)C)c2n1 [ICEC0067] | 79 | 85 | 97 | 78 | 72 | – | – | – | – | – | – | – | –
CC(C)c1cnn2c(NCc3ccccc3F)cc(NCCCCCN)nc12 [ICEC-0232] | – | – | – | – | – | 88 | 86 | 89 | 58 | 70 | – | – | –
CC(C)c1cnn2c(NCc3ccccc3)cc(NCCCCCCCN)nc12 [BS-181] | – | – | – | – | – | – | – | – | – | – | 76 | 90 | 112
CC(C)c1cnn2c(NCc3ccccc3)cc(N[C@@H](CO)[C@H](O)CO)nc12 [ICEC0318, (3S)-3-(7-(Benzylamino)-3-isopropylpyrazolo[1,5-a]pyrimidin-5-ylamino)butane-1,2,4-triol] | 72 | 102 | 94 | 70 | 63 | – | – | – | – | – | – | – | –
C=C[C@H](CO)Nc1cc(NCc2ccccc2)n2ncc(C(C)C)c2n1 [ICEC0065] | 83 | 95 | 88 | 71 | 92 | – | – | – | – | – | – | – | –
